# According to PMC7469689, “Substituted 4,5′-Bithiazoles as Catalytic Inhibitors of Human DNA Topoisomerase IIα” (Journal of Chemical Information and Modeling, 2020):
# Legend:
# human topo IIβ = molecular target: T1, human topo IIβ (Homo sapiens, UniProt Q02880); test: Human topo IIβ-mediated kDNA decatenation assay; format: biochemical
# T1 construct: purchased Inspiralis (Norwich, U.K.)
# Experimental: We were also interested in whether compounds can act on both isoforms of the human topo II. Thus, we performed human topo IIβ decatenation assays for compounds 1 and 9. […] (see also Tables S5 and S6 for more details).
# We made use of the human topo II decatenation assay kit from Inspiralis (Norwich, U.K.) to assess the ability of selected compounds to impede DNA decatenation.[89],[90] It was performed for topo IIα and topo IIβ isoforms using the protocol as described previously.[35]
# human topo IIα [1] = molecular target: T2, human topo IIα (Homo sapiens, UniProt P11388); test: ATPase activity (ATP hydrolysis) assay, pyruvate kinase/lactate dehydrogenase coupled; format: biochemical
# T2 construct: purchased Inspiralis (Norwich, U.K.)
# Solubility observations = format: physicochemical; details: 500 μM; erratic readings
# human topo IIα [2] = molecular target: T2, human topo IIα; test: Human topo IIα-mediated cleavage assay; format: biochemical
# Source text: To determine whether compounds act as catalytic inhibitors, a cleavage assay was next performed for compounds 1 and 9.
# We performed the assay in collaboration with Inspiralis (Norwich, U.K.).
# human topo IIα [3] = molecular target: T2, human topo IIα; test: HTS relaxation assay of human topo IIα; format: biochemical
# [4] = molecular target: T3, human topo IIα ATPase domain (Homo sapiens, UniProt P11388); test: Microscale thermophoresis (MST) binding; details: truncated human topo IIα ATPase domain; three independent runs
# T3 construct: the ATPase domain of human topo IIα with 1–453 amino acid residues; purchased Inspiralis
# HepG2 cells [5] = test: DNA double-strand break induction, γ-H2AX assay; format: cell-based, human
# HepG2 cells [6] = test: Cell cycle analysis by flow cytometry; format: cell-based, human; details: 24 h
# HepG2 cells [7] = test: Cell proliferation, Ki67 flow cytometry; format: cell-based, human; details: 24 h, 50 μM
# [8] = 500 μM (compound 1: solubility problems, erratic readings)
# T2 sequence (P11388 whole entry): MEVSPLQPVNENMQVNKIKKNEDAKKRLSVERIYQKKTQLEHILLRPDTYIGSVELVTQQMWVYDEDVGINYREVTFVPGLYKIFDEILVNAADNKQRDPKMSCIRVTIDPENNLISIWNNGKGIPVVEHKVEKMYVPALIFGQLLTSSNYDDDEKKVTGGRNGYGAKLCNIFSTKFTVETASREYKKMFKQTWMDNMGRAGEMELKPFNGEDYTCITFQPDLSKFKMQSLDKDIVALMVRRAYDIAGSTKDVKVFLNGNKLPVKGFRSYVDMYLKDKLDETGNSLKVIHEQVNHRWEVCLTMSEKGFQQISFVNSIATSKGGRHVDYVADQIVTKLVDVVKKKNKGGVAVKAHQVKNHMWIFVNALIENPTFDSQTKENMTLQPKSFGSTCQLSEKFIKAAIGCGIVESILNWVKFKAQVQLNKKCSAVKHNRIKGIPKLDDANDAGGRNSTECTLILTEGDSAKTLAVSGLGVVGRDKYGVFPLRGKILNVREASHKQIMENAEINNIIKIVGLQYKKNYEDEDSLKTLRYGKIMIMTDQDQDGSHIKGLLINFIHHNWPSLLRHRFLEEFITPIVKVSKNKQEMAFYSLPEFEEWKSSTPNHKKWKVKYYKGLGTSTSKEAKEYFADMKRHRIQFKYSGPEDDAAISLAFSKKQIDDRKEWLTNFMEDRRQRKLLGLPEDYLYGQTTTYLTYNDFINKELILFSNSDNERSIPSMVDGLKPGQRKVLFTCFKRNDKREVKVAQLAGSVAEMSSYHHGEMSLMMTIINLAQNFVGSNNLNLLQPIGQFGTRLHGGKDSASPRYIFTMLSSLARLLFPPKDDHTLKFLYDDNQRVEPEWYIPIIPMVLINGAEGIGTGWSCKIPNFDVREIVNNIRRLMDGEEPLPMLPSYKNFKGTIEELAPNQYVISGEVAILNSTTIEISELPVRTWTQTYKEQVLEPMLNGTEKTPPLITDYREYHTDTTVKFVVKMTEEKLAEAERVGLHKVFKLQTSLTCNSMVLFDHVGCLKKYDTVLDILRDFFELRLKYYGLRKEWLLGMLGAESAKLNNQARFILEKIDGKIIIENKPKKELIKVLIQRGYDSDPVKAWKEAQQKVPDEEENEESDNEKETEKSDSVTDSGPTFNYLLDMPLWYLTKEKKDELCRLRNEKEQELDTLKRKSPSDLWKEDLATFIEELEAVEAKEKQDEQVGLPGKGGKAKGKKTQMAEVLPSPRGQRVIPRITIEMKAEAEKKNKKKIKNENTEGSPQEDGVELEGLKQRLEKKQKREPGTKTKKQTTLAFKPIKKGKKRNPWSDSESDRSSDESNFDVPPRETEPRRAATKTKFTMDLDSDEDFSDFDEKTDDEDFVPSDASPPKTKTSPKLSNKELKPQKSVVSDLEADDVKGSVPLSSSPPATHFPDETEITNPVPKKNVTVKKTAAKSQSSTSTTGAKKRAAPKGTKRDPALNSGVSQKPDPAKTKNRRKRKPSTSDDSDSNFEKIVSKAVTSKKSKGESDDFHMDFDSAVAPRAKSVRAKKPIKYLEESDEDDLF
# T1 sequence (Q02880 whole entry): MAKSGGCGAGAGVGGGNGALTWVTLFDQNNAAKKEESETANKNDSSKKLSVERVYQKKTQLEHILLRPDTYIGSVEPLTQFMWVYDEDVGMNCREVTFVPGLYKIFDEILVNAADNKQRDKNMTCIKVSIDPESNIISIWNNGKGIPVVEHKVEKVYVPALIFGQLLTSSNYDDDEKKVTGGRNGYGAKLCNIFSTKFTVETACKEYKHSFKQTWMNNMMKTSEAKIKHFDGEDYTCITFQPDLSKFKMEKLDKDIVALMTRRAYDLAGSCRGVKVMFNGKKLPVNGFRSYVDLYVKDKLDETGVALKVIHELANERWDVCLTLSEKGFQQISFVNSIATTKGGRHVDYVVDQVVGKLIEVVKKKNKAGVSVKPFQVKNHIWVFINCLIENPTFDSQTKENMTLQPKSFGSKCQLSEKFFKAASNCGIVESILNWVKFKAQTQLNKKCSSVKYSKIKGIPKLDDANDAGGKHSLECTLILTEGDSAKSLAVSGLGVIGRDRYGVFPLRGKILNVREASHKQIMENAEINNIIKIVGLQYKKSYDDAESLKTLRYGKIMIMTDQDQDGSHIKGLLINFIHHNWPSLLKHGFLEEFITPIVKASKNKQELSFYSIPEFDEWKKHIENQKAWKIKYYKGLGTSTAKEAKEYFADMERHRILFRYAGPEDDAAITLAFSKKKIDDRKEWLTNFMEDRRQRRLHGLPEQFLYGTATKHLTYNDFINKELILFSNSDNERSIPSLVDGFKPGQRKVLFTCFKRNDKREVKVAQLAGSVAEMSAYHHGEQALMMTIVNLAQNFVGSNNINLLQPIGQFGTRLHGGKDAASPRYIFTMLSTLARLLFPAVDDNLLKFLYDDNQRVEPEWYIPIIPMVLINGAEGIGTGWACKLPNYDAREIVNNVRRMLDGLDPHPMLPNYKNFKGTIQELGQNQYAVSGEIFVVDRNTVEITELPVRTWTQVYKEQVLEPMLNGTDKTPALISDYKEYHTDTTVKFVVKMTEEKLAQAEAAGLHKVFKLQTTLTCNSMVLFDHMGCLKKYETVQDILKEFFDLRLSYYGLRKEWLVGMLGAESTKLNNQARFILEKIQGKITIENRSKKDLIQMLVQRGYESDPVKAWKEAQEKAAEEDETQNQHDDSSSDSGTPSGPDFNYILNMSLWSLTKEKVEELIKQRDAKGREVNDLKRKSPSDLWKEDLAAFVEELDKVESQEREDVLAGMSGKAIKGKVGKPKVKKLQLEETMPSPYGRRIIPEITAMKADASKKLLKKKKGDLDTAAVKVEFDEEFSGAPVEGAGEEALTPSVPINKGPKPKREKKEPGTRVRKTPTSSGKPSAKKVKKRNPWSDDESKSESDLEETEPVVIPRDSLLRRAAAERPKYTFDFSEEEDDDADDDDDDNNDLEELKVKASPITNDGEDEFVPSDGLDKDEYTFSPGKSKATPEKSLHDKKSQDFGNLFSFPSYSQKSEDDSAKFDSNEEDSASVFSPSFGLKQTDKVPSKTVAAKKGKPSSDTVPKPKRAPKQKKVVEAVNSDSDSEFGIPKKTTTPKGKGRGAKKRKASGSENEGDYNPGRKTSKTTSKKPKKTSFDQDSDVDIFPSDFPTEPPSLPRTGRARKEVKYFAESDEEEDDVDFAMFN
# T3 sequence (P11388 1-453): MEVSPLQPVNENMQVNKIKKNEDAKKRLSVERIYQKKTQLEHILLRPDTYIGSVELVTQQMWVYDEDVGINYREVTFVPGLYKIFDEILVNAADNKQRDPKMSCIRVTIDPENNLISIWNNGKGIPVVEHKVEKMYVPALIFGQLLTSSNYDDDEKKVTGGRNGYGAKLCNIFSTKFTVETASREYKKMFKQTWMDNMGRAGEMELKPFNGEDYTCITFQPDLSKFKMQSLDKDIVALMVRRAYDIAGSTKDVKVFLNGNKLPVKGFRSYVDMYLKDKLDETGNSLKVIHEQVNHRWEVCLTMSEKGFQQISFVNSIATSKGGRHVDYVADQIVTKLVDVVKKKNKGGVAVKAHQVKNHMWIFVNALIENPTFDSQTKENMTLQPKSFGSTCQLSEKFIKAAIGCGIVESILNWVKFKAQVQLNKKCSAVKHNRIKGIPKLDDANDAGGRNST
smiles,measurement,setting,value
Cc1nc(N)sc1-c1csc(Nc2ccc(C(F)(F)F)cc2)n1 [Compound 1],inhibition of decatenation,human topo IIβ; 125 μM,completely inhibited
same,inhibition of decatenation,human topo IIβ; 500 μM,completely inhibited
same,Percentage ATPase activity Run 1,human topo IIα [1]; 3.9 μM,92.25%
same,Percentage ATPase activity Run 2,human topo IIα [1]; 3.9 μM,88.37%
same,Percentage ATPase activity Run 1,human topo IIα [1]; 31.5 μM,96.12%
same,Percentage ATPase activity Run 2,human topo IIα [1]; 31.5 μM,94.57%
same,Percentage ATPase activity Run 1,human topo IIα [1]; 125 μM,24.81%
same,Percentage ATPase activity Run 2,human topo IIα [1]; 125 μM,16.28%
same,inhibition of topo IIα-mediated ATP hydrolysis (in words),human topo IIα [1]; 125 μM,almost fully inhibited
same,Percentage ATPase activity Run 1,human topo IIα [1]; [8],65.12%
same,Percentage ATPase activity Run 2,human topo IIα [1]; [8],36.43%
same,solubility in the ATPase assay,Solubility observations,solubility problems
same,% Linear DNA (first column),human topo IIα [2]; 3.9 μM,8.05%
same,% Linear DNA (second column),human topo IIα [2]; 3.9 μM,5.57%
same,% Linear DNA (first column),human topo IIα [2]; 31.5 μM,6.32%
same,% Linear DNA (second column),human topo IIα [2]; 31.5 μM,7.77%
same,% Linear DNA (first column),human topo IIα [2]; 125 μM,3.02%
same,% Linear DNA (second column),human topo IIα [2]; 125 μM,2.85%
same,% Linear DNA (first column),human topo IIα [2]; 500 μM,2.45%
same,% Linear DNA (second column),human topo IIα [2]; 500 μM,2.98%
same,linear DNA formation in cleavage assay (in words),human topo IIα [2]; four concentrations,did not reveal a significant amount of linear DNA above the background level
same,IC50,human topo IIα [3],33.4 µM
same,Kd,[4],50.6 ± 7.6 µM
same,induction of DNA double-strand breaks (γH2AX),HepG2 cells [5]; 10 μM,did not induce an increase in DNA-DSB formation
same,induction of DNA double-strand breaks (γH2AX),HepG2 cells [5]; 50 μM,did not induce an increase in DNA-DSB formation
same,cell cycle arrest (in words),HepG2 cells [6],cell cycle arrest in the G1 phase
same,cell proliferation (Ki67),HepG2 cells [7],65.1%
